# Test results as given in patent US8242151B2, “Tricyclic compounds” (Kyowa Hakko Kirin Co., Ltd., priority 2007, dated 2012).
# Target: T1, GAL4-PPARγ chimeric nuclear receptor (human PPARγ ligand binding region) (Homo sapiens, UniProt P37231)
# T1 construct: expressed in transfected cells; host or cells: HEK293EBNA cells
# T1 sequence (P37231 174-475 isoform P37231-2): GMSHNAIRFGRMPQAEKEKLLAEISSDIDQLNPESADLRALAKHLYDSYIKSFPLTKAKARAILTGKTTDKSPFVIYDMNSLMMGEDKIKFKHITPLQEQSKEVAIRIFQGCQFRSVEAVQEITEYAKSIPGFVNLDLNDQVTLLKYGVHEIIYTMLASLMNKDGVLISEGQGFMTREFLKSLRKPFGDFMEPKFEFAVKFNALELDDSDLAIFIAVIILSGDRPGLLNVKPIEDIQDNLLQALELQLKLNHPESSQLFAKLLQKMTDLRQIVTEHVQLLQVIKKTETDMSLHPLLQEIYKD
# Assay: Transactivation assay of PPARγ by transient gene transfer (GAL4-PPARγ luciferase reporter)
# Format: cell-based
# Conditions: HEK293EBNA cells, 24 hr; concentration showing 50% of efficacy; activity relative to pioglitazone 10 μmol/L = 100%
# Experimental: The agonist activity of compound (I) to PPARγ was determined by a transactivation assay method using a chimeric nuclear receptor of a DNA binding region of a yeast transcription factor GAL4 and a PPARγ ligand binding region. Specifically, the PPARγ agonist activity of compound (I) was evaluated by the following method based on the method of Lehmann et al. (J Biol. Chem., 1995, vol. 270, page 12953).
# HEK293EBNA cells cultured in Dulbecco's Modified Eagle medium (Invitrogen) containing 10 v/v % fetal calf serum (Invitrogen) were used. 30 mL of the above-mentioned cells (density: 1×10^5 cells/mL) were inoculated in a […] culture dish (Iwaki Glass), and cultured overnight. Using SuperFect Transfection Reagent (QIAGEN), a plasmid expressing a GAL4-PPARγ chimeric nuclear receptor fusing 174-475 amino acids, which are human PPARγ ligand binding region, and 1-147 amino acids, which are GAL4 DNA binding region, and a reporter plasmid expressing a GAL4 responsive luciferase were transiently introduced into the cells at a proportion of 4:1. After 5 hr from gene introduction, the cells were detached from the culture dish, and the detached cells (density: 2×10^4 cells/mL) were inoculated by 100 μL in each well of a 96 well white plate (SUMITOMO BAKELITE), and cultured overnight. The medium was removed, compound (I) diluted in various concentrations with serum-free Dulbecco's Modified Eagle medium was added by 100 μL, and the mixture was reacted under a 5% carbon dioxide gas stream (5% CO2) at 37° C. for 24 hr. On the other hand, as a positive control, 10 μmol/L of pioglitazone (100 μL) was added, and the mixture was reacted under a 5% carbon dioxide gas stream (5% CO2) at 37° C. for 24 hr. As a substrate of luciferase, 100 μL of Steady-Glo (Promega) was added to each well and the mixture was thoroughly stirred. Immediately thereafter, the chemical luminescence due to luciferase was measured using TopCount NTX (Packard).
# The agonist activity (activity rate (%)) of compound (I) to PPARγ was calculated according to the following formula, as a relative activity when the agonist activity on addition of pioglitazone (10 μmol/L) was 100%.
row,Structure (SMILES),EC50 [nM]
1,"CCCc1nc2c(C)cccc2n1Cc1ccc2c(c1)CCc1ccccc1/C2=C/c1noc(=O)[nH]1 [Compound 51, (Z)-2-(4-methyl-2-propylbenzimidazol-1-yl)methyl-5-(5-oxo-4,5-dihydro-1,2,4-oxadiazol-3-yl)methylene-10,11-dihydro-5H-dibenzo[a,d]cycloheptene]",94
2,"CCc1nc2c(C)cc(C)nc2n1Cc1ccc2c(c1)CCc1ccccc1N2C(C)c1nnn[nH]1 (stereo not shown) [Compound 22, 2-(2-ethyl-5,7-dimethyl-3H-imidazo[4,5-b]pyridin-3-yl)methyl-5-[1-(1H-tetrazol-5-yl)ethyl]-10,11-dihydro-5H-dibenzo[b,f]azepine]",1000
3,"CCCc1nc2c(C)cccc2n1Cc1ccc2c(c1)CCc1ccccc1/C2=C(/C)c1noc(=O)[nH]1 [Compound 83, (E)-2-(4-methyl-2-propylbenzimidazol-1-yl)methyl-5-[1-(5-oxo-4,5-dihydro-1,2,4-oxadiazol-3-yl)ethylidene]-10,11-dihydro-5H-dibenzo[a,d]cycloheptene]",342
4,"CCCc1nc2c(C)cccc2n1Cc1ccc2c(c1)CCc1ccccc1N2C(C)c1noc(=O)[nH]1 (stereo not shown) [Compound 18, 2-(4-methyl-2-propylbenzimidazol-1-yl)methyl-5-[1-(5-oxo-4,5-dihydro-1,2,4-oxadiazol-3-yl)ethyl]-10,11-dihydro-5H-dibenzo[b,f]azepine]",48
5,"CCCc1nc2c(C(F)(F)F)cc(C)nc2n1Cc1ccc2c(c1)CCc1ccccc1/C2=C/c1noc(=O)[nH]1 [Compound 57, (Z)-2-(5-methyl-2-propyl-7-trifluoromethyl-3H-imidazo[4,5-b]pyridin-3-yl)methyl-5-(5-oxo-4,5-dihydro-1,2,4-oxadiazol-3-yl)methylene-10,11-dihydro-5H-dibenzo[a,d]cycloheptene]",440
6,"CCc1nc2c(Cl)cc(C)nc2n1Cc1ccc2c(c1)OCc1ccccc1/C2=C\c1noc(=O)[nH]1 [Compound 106, (E)-3-(7-chloro-2-ethyl-5-methyl-3H-imidazo[4,5-b]pyridin-3-yl)methyl-11-(5-oxo-4,5-dihydro-1,2,4-oxadiazol-3-yl)methylene-6,11-dihydrodibenzo[b,e]oxepine]",310
7,"CCc1nc2c(Cl)cc(C)nc2n1Cc1ccc2c(c1)COc1ccccc1/C2=C(/C)c1noc(=O)[nH]1 [Compound 129, (Z)-8-(7-chloro-2-ethyl-5-methyl-3H-imidazo[4,5-b]pyridin-3-yl)methyl-11-[1-(5-oxo-4,5-dihydro-1,2,4-oxadiazol-3-yl)ethylidene]-6,11-dihydrodibenzo[b,e]oxepine]",611
8,"CCc1nc2c(C)cc(C)nc2n1Cc1ccc2c(c1)CCc1ccccc1/C2=C/c1nnn[nH]1 [Compound S17, (Z)-2-(2-ethyl-5,7-dimethyl-3H-imidazo[4,5-b]pyridin-3-yl)methyl-5-(1H-tetrazol-5-yl)methylene-10,11-dihydro-5H-dibenzo[a,d]cycloheptene]",1290
9,"CCCc1nc2c(C)cccc2n1Cc1ccc2c(c1)CCc1ccccc1/C2=C\c1noc(=O)[nH]1 [Compound 33, (E)-2-(4-methyl-2-propylbenzimidazol-1-yl)methyl-5-(5-oxo-4,5-dihydro-1,2,4-oxadiazol-3-yl)methylene-10,11-dihydro-5H-dibenzo[a,d]cycloheptene]",103
10,"CCCc1nc(CC)c(C(=O)OCC)n1Cc1ccc2c(c1)CCc1ccccc1N2C(C)c1nnn[nH]1 (stereo not shown) [Compound 28, 2-(5-ethoxycarbonyl-4-ethyl-2-propyl-1H-imidazol-1-yl)methyl-5-[1-(1H-tetrazol-5-yl)ethyl]-10,11-dihydro-5H-dibenzo[b,f]azepine]",325
11,"CCc1nc2c(Cl)cc(C)nc2n1Cc1ccc2c(c1)CCc1ccccc1N2C(C)c1nnn[nH]1 (stereo not shown) [Compound 25, 2-(7-chloro-2-ethyl-5-methyl-3H-imidazo[4,5-b]pyridin-3-yl)methyl-5-[1-(1H-tetrazol-5-yl)ethyl]-10,11-dihydro-5H-dibenzo[b,f]azepine]",233
12,"CCc1nc2c(C)cc(C)nc2n1Cc1ccc2c(c1)CCc1ccccc1/C2=C(\C)c1nn[nH]n1 [Compound 62, (Z)-2-(2-ethyl-5,7-dimethyl-3H-imidazo[4,5-b]pyridin-3-yl)methyl-5-[1-(1H-tetrazol-5-yl)ethylidene]-10,11-dihydro-5H-dibenzo[a,d]cycloheptene]",251
13,"CCc1nc2c(C(F)(F)F)cc(C)nc2n1Cc1ccc2c(c1)CCc1ccccc1/C2=C\c1noc(=O)[nH]1 [Compound 37, (E)-2-(2-ethyl-5-methyl-7-trifluoromethyl-3H-imidazo[4,5-b]pyridin-3-yl)methyl-5-(5-oxo-4,5-dihydro-1,2,4-oxadiazol-3-yl)methylene-10,11-dihydro-5H-dibenzo[a,d]cycloheptene]",415
14,"C/C(=C1/c2ccccc2COc2cc(Cn3c(C4CC4)nc4c(C)cc(C)nc43)ccc21)c1noc(=O)[nH]1 [Compound 112, (E)-3-(2-cyclopropyl-5,7-dimethyl-3H-imidazo[4,5-b]pyridin-3-yl)methyl-11-[1-(5-oxo-4,5-dihydro-1,2,4-oxadiazol-3-yl)ethylidene]-6,11-dihydrodibenzo[b,e]oxepine]",1130
15,"Cc1cc(C)c2nc(C3CC3)n(Cc3ccc4c(c3)CCc3ccccc3N4Cc3nnn[nH]3)c2n1 [Compound S14, 2-(2-cyclopropyl-5,7-dimethyl-3H-imidazo[4,5-b]pyridin-3-yl)methyl-5-(1H-tetrazol-5-yl)methyl-10,11-dihydro-5H-dibenzo[b,f]azepine]",4130
16,"CCCc1nc2c(C)cccc2n1Cc1ccc2c(c1)CCc1ccccc1C2Cc1noc(=O)[nH]1 (stereo not shown) [Compound 64, 2-(4-methyl-2-propylbenzimidazol-1-yl)methyl-5-(5-oxo-4,5-dihydro-1,2,4-oxadiazol-3-yl)methyl-10,11-dihydro-5H-dibenzo[a,d]cycloheptene]",73
17,"CCCc1nc2c(C)cccc2n1Cc1ccc2c(c1)CCc1ccccc1N2Cc1noc(=O)[nH]1 [Compound 6, 2-(4-methyl-2-propylbenzimidazol-1-yl)methyl-5-(5-oxo-4,5-dihydro-1,2,4-oxadiazol-3-yl)methyl-10,11-dihydro-5H-dibenzo[b,f]azepine]",97
18,"Cc1cc(C)c2nc(C3CC3)n(Cc3ccc4c(c3)CCc3ccccc3N4C(C)c3noc(=O)[nH]3)c2n1 (stereo not shown) [Compound 70, 2-(2-cyclopropyl-5,7-dimethyl-3H-imidazo[4,5-b]pyridin-3-yl)methyl-5-[1-(5-oxo-4,5-dihydro-1,2,4-oxadiazol-3-yl)ethyl]-10,11-dihydro-5H-dibenzo[b,f]azepine]",53
19,"CCOc1nc2cccnc2n1Cc1ccc2c(c1)CCc1ccccc1/C2=C(/C)c1noc(=O)[nH]1 [Compound 91, (E)-2-(2-ethoxy-3H-imidazo[4,5-b]pyridin-3-yl)methyl-5-[1-(5-oxo-4,5-dihydro-1,2,4-oxadiazol-3-yl)ethylidene]-10,11-dihydro-5H-dibenzo[a,d]cycloheptene]",1520

# Tested on: spontaneously hypertensive rats (SHR)
# Assay: Antihypertensive action by telemetry method
# Format: in vivo, rat
# Conditions: oral once a day for 4 days, 24 hr averages
# From the text: A telemetry transmitter was indwelled in the abdominal artery of spontaneously hypertensive rats (SHR), and the blood pressure and heart rate were monitored. The rats were acclimated and reared for 4 weeks or more, and only the rats with hypertension were used for the test. Before drug administration, the rats were grouped such that the blood pressure and heart rate of each rat would be of the same levels between the groups. A solvent (0.5% methylcellulose solution) and a test compound were repeatedly administered orally once a day for 4 days. The average systolic blood pressure for 24 hr, average diastolic blood pressure for 24 hr and average heart rate for 24 hr were calculated on each administration day.
row,Structure (SMILES),"antihypertensive action (blood pressure, telemetry)"
1,"CCc1nc2c(C)cc(C)nc2n1Cc1ccc2c(c1)CCc1ccccc1N2C(C)c1nnn[nH]1 (stereo not shown) [Compound 22, 2-(2-ethyl-5,7-dimethyl-3H-imidazo[4,5-b]pyridin-3-yl)methyl-5-[1-(1H-tetrazol-5-yl)ethyl]-10,11-dihydro-5H-dibenzo[b,f]azepine]",antihypertensive action
2,"CCc1nc2c(Cl)cc(C)nc2n1Cc1ccc2c(c1)COc1ccccc1/C2=C(/C)c1noc(=O)[nH]1 [Compound 129, (Z)-8-(7-chloro-2-ethyl-5-methyl-3H-imidazo[4,5-b]pyridin-3-yl)methyl-11-[1-(5-oxo-4,5-dihydro-1,2,4-oxadiazol-3-yl)ethylidene]-6,11-dihydrodibenzo[b,e]oxepine]",antihypertensive action
3,"CCc1nc2c(Cl)cc(C)nc2n1Cc1ccc2c(c1)CCc1ccccc1N2C(C)c1nnn[nH]1 (stereo not shown) [Compound 25, 2-(7-chloro-2-ethyl-5-methyl-3H-imidazo[4,5-b]pyridin-3-yl)methyl-5-[1-(1H-tetrazol-5-yl)ethyl]-10,11-dihydro-5H-dibenzo[b,f]azepine]",antihypertensive action
